The source made the active and inactive calls.
Key:
[1] = target: Luciferin 4-monooxygenase (Photinus pyralis, UniProt P08659); experiment: Counter Screen for Luciferase-based Assay Positives. [Related pubchem assays: 620, 618, 411 ]
HT-1080 = experiment: HT1080 cell viability loss – fluorescence readout (AID 620); format: functional, cell-based; details: Homo sapiens
[2] = target: T1, RNA-editing ligase 1, mitochondrial (Trypanosoma brucei brucei, UniProt P86926); experiment: inhibition of trypanosome RNA editing ligase – biochemical, fluorescence, Trypanosoma brucei, dose response (AID 1117295); format: functional
T1 sequence (P86926 whole entry): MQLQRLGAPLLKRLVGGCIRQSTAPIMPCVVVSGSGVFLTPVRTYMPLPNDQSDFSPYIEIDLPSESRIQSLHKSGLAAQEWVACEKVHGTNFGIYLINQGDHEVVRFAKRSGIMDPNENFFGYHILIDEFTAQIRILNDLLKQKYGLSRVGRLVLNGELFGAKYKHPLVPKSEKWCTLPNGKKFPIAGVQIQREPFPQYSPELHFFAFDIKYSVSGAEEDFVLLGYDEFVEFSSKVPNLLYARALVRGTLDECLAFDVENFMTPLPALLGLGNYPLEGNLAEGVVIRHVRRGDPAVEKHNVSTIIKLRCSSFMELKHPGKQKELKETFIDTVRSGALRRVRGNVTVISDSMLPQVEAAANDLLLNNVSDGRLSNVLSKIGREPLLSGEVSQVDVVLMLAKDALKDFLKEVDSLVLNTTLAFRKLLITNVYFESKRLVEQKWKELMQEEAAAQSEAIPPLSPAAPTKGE

[3] = target: T2, Acyl-homoserine lactone acylase PvdQ (Pseudomonas aeruginosa (strain LESB58), UniProt Q9I194); experiment: PvdQ acylase enzyme activity blockers – biochemical, fluorescence, plate reader and imaging, cherry-picks, dose response (AID 493231)
T2 sequence (Q9I194 whole entry): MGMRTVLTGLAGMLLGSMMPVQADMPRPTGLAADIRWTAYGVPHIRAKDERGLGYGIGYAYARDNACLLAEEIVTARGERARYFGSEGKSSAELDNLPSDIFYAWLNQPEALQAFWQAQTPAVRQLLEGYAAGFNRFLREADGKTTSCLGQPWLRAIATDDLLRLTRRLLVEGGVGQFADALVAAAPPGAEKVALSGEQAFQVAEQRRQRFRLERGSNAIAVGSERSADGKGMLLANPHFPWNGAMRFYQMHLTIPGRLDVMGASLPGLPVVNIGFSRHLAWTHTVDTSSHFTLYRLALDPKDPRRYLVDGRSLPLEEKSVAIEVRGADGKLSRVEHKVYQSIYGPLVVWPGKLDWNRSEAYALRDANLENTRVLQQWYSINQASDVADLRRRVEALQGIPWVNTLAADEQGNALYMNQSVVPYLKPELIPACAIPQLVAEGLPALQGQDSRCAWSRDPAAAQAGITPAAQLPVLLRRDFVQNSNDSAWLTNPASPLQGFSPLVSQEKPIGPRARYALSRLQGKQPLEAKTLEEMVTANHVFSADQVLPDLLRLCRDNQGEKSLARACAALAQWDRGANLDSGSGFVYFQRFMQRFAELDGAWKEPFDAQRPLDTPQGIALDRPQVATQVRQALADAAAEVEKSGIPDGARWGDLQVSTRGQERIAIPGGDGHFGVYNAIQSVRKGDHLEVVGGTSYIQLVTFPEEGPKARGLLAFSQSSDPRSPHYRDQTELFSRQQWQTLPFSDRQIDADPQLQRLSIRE

[4] = target: Voltage-dependent T-type calcium channel subunit alpha-1H (Homo sapiens, UniProt O95180); format: functional;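 note: channel activity triggered by adding a high calcium stimulation buffer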
Voltage-dependent T-type calcium channel subunit alpha-1H, sequence (O95180 whole entry): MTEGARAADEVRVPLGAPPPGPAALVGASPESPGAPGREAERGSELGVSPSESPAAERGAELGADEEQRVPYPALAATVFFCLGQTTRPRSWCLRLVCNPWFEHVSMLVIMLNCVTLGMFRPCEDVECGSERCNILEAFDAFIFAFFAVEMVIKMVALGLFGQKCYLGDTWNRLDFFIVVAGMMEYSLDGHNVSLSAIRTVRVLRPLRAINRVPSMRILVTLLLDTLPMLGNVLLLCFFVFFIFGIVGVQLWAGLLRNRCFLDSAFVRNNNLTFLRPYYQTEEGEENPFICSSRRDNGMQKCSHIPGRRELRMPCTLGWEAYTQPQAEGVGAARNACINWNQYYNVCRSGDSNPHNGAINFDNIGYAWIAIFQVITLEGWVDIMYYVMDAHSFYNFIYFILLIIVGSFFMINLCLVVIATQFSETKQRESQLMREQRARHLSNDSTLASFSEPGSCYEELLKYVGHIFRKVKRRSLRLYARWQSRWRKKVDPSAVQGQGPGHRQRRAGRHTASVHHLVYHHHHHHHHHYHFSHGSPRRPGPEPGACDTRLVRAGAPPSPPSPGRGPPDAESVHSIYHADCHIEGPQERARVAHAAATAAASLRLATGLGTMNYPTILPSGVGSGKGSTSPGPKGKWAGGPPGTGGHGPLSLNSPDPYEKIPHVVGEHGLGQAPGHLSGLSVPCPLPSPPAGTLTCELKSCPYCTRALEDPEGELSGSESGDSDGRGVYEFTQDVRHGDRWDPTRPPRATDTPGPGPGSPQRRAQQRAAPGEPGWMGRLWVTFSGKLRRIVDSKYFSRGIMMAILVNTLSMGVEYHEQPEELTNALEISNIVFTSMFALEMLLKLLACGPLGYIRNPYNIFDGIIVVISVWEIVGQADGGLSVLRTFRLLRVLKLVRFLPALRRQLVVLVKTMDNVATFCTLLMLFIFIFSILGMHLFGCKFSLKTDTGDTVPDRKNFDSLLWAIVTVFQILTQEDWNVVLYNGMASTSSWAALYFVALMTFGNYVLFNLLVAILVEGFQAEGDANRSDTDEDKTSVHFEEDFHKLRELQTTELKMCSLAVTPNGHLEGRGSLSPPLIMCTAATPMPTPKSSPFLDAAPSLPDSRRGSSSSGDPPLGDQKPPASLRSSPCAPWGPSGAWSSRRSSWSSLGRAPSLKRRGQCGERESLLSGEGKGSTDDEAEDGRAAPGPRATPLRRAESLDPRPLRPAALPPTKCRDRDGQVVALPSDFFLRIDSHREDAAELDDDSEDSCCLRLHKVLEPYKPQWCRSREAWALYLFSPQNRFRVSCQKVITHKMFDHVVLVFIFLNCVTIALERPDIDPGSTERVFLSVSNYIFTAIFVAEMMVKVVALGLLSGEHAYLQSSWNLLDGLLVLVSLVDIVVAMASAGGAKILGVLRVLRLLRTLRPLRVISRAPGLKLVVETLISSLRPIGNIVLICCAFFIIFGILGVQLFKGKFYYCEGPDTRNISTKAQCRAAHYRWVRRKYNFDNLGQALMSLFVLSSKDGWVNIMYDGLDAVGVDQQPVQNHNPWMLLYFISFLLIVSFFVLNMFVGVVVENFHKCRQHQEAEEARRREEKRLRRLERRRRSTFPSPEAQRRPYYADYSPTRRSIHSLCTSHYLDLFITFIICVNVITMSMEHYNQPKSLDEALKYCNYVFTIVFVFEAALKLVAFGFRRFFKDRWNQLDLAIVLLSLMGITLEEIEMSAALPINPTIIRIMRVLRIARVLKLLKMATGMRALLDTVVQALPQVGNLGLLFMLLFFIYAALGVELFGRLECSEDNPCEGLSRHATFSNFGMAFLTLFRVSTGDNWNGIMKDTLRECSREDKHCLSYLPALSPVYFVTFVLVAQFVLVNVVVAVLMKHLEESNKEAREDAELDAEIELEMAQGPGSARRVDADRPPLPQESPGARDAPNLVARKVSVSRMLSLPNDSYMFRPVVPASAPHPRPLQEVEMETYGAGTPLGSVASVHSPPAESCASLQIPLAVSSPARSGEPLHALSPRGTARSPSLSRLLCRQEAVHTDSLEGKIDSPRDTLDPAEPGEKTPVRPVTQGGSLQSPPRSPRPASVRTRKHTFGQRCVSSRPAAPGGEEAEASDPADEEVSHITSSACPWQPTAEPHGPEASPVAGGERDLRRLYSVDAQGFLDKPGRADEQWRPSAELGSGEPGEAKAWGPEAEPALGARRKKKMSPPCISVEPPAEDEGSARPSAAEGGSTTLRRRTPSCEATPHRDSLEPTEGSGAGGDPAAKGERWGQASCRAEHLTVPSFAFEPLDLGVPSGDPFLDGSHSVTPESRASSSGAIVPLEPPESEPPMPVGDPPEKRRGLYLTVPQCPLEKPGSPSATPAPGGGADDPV

HeLa = experiment: ATP-based viability loss in HeLa cells – cell-based, CellTiter-Glo luminescence, cherry-pick samples, cytotoxicity control for MITF activator project, dose response (AID 540259); format: functional; details: Homo sapiens
[5] = viability loss in human Jurkat cells – cell-based, luminescence, cytotoxicity control for P. falciparum gametocyte viability project, dose response (AID 1117277); format: functional;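 note: potency reflects loss of cellular ATP meaning fewer viable cells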
[6] = viability inhibitors of stage V gametocytes – luminescence, dose response (AID 1117278); format: functional, cell-based;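 note: gametocytes exposed to compound for 24 hours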
BJ [7] = experiment: cells; format: functional, cell-based; details: Homo sapiens
BJ [8] = experiment: growth inhibition of engineered Ras-driven BJ cells – cell-based, alamar blue fluorescence, cherrypicked samples, dose response (AID 2631); format: functional; details: Homo sapiens;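 note: confirmatory dose-response assay in RAS-dependent BJ fibroblasts engineered with TERT, LT and ST, with cytotoxicity read by fluorescence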
[9] = general cell-killing toxicity readout – plate reader, dry powder samples, cytotoxicity control for PAX8 inhibitor project, dose response (AID 743021); format: functional, cell-based
Paired box protein Pax-8 = Paired box protein Pax-8 (Homo sapiens, UniProt Q06710); experiment: PAX8 transcriptional activity inhibition in RMG-I – RMG-I cells, luciferase, cherry-pick, dose response (AID 687027); format: functional, cell-based;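 note: luciferase reporter driven by Pax8 target thyroperoxidase promoter measured by SteadyGlo luminescence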
Paired box protein Pax-8, sequence (Q06710 whole entry): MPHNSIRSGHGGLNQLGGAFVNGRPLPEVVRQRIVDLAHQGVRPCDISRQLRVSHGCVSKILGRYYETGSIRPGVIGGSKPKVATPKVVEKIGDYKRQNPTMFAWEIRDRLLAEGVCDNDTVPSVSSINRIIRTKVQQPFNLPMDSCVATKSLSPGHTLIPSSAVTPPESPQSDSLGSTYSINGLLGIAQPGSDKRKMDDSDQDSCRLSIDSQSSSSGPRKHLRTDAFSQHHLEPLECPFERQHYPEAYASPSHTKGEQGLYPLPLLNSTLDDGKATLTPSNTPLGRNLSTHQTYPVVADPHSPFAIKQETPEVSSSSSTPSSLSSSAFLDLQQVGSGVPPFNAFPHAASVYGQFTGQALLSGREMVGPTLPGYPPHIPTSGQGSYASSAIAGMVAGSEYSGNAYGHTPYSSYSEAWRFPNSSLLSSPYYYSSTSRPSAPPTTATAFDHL

[10] = DRD fibroblast viability loss – cell-based, non-viral oncogenic, luminescence, dose response (AID 1934); format: functional; details: Homo sapiens
BJ [11] = experiment: BJ-TERT fibroblast viability loss – cell-based, RAS-independent, luminescence, dose response (AID 1933); format: functional; details: Homo sapiens
[12] = target: T3, Heat shock factor protein 1 (Mus musculus, UniProt P38532); experiment: decrease of HSF1-responsive luciferase luminescence – cell-based, NIH3T3, dose retest, confirmation (AID 2382); format: functional;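 note: NIH3T3 fibroblasts with HSF1-driven luciferase reporter stressed by proteasome inhibitor MG132; luminescence from HSF1-driven luciferase expression after 8 hours of MG132 stress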
T3 sequence (P38532 whole entry): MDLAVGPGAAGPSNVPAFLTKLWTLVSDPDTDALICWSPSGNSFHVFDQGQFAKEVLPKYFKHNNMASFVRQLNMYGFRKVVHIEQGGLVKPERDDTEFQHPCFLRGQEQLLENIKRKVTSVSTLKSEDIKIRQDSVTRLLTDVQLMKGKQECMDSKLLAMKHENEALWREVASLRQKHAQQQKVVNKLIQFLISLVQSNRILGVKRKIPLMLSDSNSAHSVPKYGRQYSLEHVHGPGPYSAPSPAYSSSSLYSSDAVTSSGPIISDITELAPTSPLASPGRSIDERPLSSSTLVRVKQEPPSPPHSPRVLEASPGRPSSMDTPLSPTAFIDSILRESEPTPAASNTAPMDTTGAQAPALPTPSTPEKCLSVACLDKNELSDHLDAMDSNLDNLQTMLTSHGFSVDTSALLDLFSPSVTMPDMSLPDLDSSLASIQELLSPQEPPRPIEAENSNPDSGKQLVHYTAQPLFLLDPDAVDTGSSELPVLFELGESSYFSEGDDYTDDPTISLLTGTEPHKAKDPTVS

BJ [13] = experiment: BJ-TERT-LT-ST fibroblast viability loss – cell-based, RAS-independent, luminescence, dose response (AID 1935); format: functional; details: Homo sapiens;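 note: BJ fibroblasts immortalized with TERT plus LT and ST oncogenes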
[14] = HEK-293T cell viability reduction – luminescence, B-cell screen hits, cytotoxicity control for BCR NF-kB inhibitor project, dose response (AID 489021); format: functional, cell-based;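 note: HEK-293T cells carrying an NF-kB luciferase reporter; cells exposed to compound for about 14 hours before viability readout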
[15] = P. falciparum Dd2 growth inhibitors, dose response, SYBR Green, cherry-picked samples (AID 1159567); format: functional, cell-based
[16] = toxicity to human hepatoma HepG2 cells – cell-based, cherry-picked samples, cytotoxicity control, dose response (AID 1159577); format: functional

Luciferin 4-monooxygenase, sequence (P08659 whole entry): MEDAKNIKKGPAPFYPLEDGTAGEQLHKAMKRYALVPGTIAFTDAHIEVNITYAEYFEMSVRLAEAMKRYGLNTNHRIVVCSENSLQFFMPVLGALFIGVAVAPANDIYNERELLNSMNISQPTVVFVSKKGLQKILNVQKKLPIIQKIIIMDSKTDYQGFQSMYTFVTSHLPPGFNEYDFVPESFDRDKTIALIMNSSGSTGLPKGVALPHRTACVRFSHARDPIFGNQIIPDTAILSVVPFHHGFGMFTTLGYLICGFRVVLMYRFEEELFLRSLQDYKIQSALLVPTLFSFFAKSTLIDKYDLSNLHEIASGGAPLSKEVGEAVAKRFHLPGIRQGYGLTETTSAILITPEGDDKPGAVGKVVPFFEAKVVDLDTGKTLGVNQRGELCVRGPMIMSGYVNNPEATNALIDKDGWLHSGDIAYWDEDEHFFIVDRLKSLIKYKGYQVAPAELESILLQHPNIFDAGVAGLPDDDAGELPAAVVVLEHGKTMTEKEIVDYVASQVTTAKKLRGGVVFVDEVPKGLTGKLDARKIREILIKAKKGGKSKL

## Cc1cc(N)n2nc(-c3ccccc3)cc2n1
[1]
  EC50: 1.04 µM (active)
HT-1080
  EC50: > 50 µM (not active)

## COC(=O)C1=C(C)N(Cc2ccc(C(F)(F)F)cc2)C(NCC2CC2)=NC1c1ccccc1C(F)(F)F (stereo not drawn)
[2]
  IC50: > 96.6 µM (inactive)

## COc1ccccc1C(C#N)c1cccc(Cl)n1 (stereo not drawn)
[3]
  AC50: 0.85 µM (active)

## CCN(CCCNC(=O)CCc1nc(-c2ccc(C)cc2)no1)c1cccc(C)c1
[4]
  EC50: 2.54 µM (active)

## Cc1ccc(SCc2cn3c(C)csc3n2)cc1
HeLa
  AC50: 54.9 µM (active)
[1]
  EC50: < 0.2 µM (active)
HT-1080
  EC50: > 50 µM (not active)

## Cc1cccc(NC(=O)c2csnn2)n1
[5]
  IC50: > 83.3 µM (inactive)
[6]
  IC50: > 109 µM (inactive)

## CC(C)(C)NC(=O)c1cc(Cl)ccc1[N+](=O)[O-]
[3]
  AC50: 11.5 µM (active)

## COC(=O)[C@@H]1Cc2c([nH]c3ccccc23)C(C)(C)N1C(=O)CCl
BJ [7]
  EC50: 3.16 µM (inconclusive)
BJ [8]
  EC50: 18.1 µM (active)
[9]
  AC50: 3.27 µM (active)
Paired box protein Pax-8
  AC50: 1.26 µM (active)
[10]
  EC50: 2.65 µM (inconclusive)
BJ [11]
  EC50: 2.4 µM (inconclusive)
[12]
  EC50: 4.08 µM (active)
BJ [13]
  EC50: > 75 µM (inconclusive)
[14]
  IC50: > 80 µM (inactive)

## N#Cc1ccc(-c2ccc([C@@H]3[C@@H]4CN(C(=O)Nc5ccc(C(F)(F)F)cc5)C[C@H]3N4)cc2)cc1
[15]
  AC50: 5.94 µM (active)
[16]
  AC50: 20.5 µM (active)

## CCc1ccc(NC(=O)C[n+]2cc(-c3ccc(C)cc3)n3c2CCC3)cc1
[2]
  IC50: > 96.6 µM (inactive)

Source: ChEMBL document CHEMBL1201862, “PubChem BioAssay data set” (2004)
